# From patent US8551999B2, “Heterocyclic compound and pharmaceutical composition thereof” (Otsuka Pharmaceutical Co., Ltd., priority 2007, dated 2013)
row,melting point,Structure (SMILES)
1,222 to 226 °C,"Br.CN(C(=O)c1ccc(Cl)c(Cl)c1)c1ccc(Oc2ccc3c(c2)cc(C(=O)N2CCN(Cc4ccc5c(c4)OCO5)CC2)n3C)nc1 [Example 6, N-{6-[2-(4-Benzo[1,3]dioxol-5-ylmethylpiperazine-1-carbonyl)-1-methyl-1H-indol-5-yloxy]pyridin-3-yl}-3,4-dichloro-N-methyl-benzamide hydrobromide]"
2,264 to 269 °C,"Br.Cn1c(C(=O)N2CCN(Cc3ccc4c(c3)OCO4)CC2)cc2cc(Oc3ccc(NC(=O)c4ccc(Cl)c(Cl)c4)cn3)ccc21 [Example 7, N-{6-[2-(4-Benzo[1,3]dioxol-5-ylmethylpiperazine-1-carbonyl)-1-methyl-1H-indol-5-yloxy]pyridin-3-yl}-3,4-dichlorobenzamide hydrobromide]"
3,240 to 244 °C,"Br.Cn1c(C(=O)N2CCN(Cc3ccc4c(c3)OCO4)CC2)cc2cc(Oc3ccc(NC(=O)c4ccc(C(F)(F)F)cc4)cn3)ccc21 [Example 8, N-{6-[2-(4-Benzo[1,3]dioxol-5-ylmethylpiperazine-1-carbonyl)-1-methyl-1H-indol-5-yloxy]pyridin-3-yl}-4-trifluoromethylbenzamide hydrobromide]"
4,258 to 261 °C (dec.),"Br.Cn1c(C(=O)N2CCN(Cc3ccc4c(c3)OCO4)CC2)cc2cc(Oc3ccc(NC(=O)c4ccc(C(F)(F)F)cc4C(F)(F)F)cn3)ccc21 [Example 9, N-{6-[2-(4-Benzo[1,3]dioxol-5-ylmethylpiperazine-1-carbonyl)-1-methyl-1H-indol-5-yloxy]pyridin-3-yl}-2,4-bistrifluoromethyl-benzamide hydrobromide]"
5,227 to 232 °C (dec.),"Br.Cn1c(C(=O)N2CCN(Cc3ccc4c(c3)OCO4)CC2)cc2cc(Oc3ccc(NC(=O)c4ccc(-n5cccc5)cc4)cn3)ccc21 [Example 11, N-{6-[2-(4-Benzo[1,3]dioxol-5-ylmethylpiperazine-1-carbonyl)-1-methyl-1H-indol-5-yloxy]pyridin-3-yl}-4-pyrrol-1-ylbenzamide hydrobromide]"
6,176 to 178 °C,"Br.CN(C(=O)/C=C/c1cc(F)cc(F)c1)c1ccc(Oc2ccc3c(c2)cc(C(=O)N2CCN(Cc4ccc5c(c4)OCO5)CC2)n3C)nc1 [Example 12, (E)-N-{6-[2-(4-Benzo[1,3]dioxol-5-ylmethylpiperazine-1-carbonyl)-1-methyl-1H-indol-5-yloxy]pyridin-3-yl}-3-(3,5-difluorophenyl)-N-methylacrylamide hydrobromide]"
7,249 to 251 °C,"Br.COc1ccc(CN2CCN(C(=O)c3cc4cc(Oc5ccc(NC(=O)c6ccc(C(F)(F)F)cc6C)cn5)ccc4n3C)CC2)cc1 [Example 14, N-(6-{2-[4-(4-Methoxybenzyl)piperazine-1-carbonyl]-1-methyl-1H-indol-5-yloxy}pyridin-3-yl)-2-methyl-4-trifluoromethylbenzamide hydrobromide]"
8,163 to 165 °C,"COc1ccc(CN2CCN(C(=O)c3cc4cc(Oc5ccc(N(C)C(=O)c6ccc(C(F)(F)F)cc6Cl)cn5)ccc4n3C)CC2)cc1.O=C(O)C(=O)O [Example 16, 2-Chloro-N-(6-{2-[4-(4-methoxybenzyl)piperazine-1-carbonyl]-1-methyl-1H-indol-5-yloxy}pyridin-3-yl)-N-methyl-4-trifluoromethyl-benzamide oxalate]"
9,226 to 227 °C,"Br.COc1ccc(CN2CCN(C(=O)c3cc4cc(Oc5ccc(NC(=O)c6ccc(OC(F)(F)F)cc6)cn5)ccc4n3C)CC2)cc1 [Example 17, N-(6-{2-[4-(4-Methoxybenzyl)piperazine-1-carbonyl]-1-methyl-1H-indol-5-yloxy}pyridin-3-yl)-4-trifluoromethoxybenzamide hydrobromide]"
10,147 to 148 °C,"COc1ccc(CN2CCN(C(=O)c3cc4cc(Oc5ccc(N(C)C(=O)c6ccc(OC(F)(F)F)cc6)cn5)ccc4n3C)CC2)cc1.O=C(O)/C=C\C(=O)O [Example 18, N-(6-{2-[4-(4-Methoxybenzyl)piperazine-1-carbonyl]-1-methyl-1H-indol-5-yloxy}pyridin-3-yl)-N-methyl-4-trifluoromethoxybenzamide maleate]"
11,188 to 191 °C,"Br.COc1ccc(CN2CCN(C(=O)c3cc4cc(Oc5ccc(NC(=O)c6ccc(C(F)(F)F)c(C)c6)cn5)ccc4n3C)CC2)cc1 [Example 19, N-(6-{2-[4-(4-Methoxybenzyl)piperazine-1-carbonyl]-1-methyl-1H-indol-5-yloxy}pyridin-3-yl)-3-methyl-4-trifluoromethylbenzamide hydrobromide]"
12,199 to 202 °C,"Br.COc1ccc(CN2CCN(C(=O)c3cc4cc(Oc5ccc(N(C)C(=O)c6ccc(C(F)(F)F)c(C)c6)cn5)ccc4n3C)CC2)cc1 [Example 20, N-(6-{2-[4-(4-Methoxybenzyl)piperazine-1-carbonyl]-1-methyl-1H-indol-5-yloxy}pyridin-3-yl)-3,N-dimethyl-4-trifluoromethyl-benzamide hydrobromide]"
13,152 to 154 °C,"COc1ccc(CN2CCN(C(=O)c3cc4cc(Oc5ccc(CNC(=O)c6ccc(C(F)(F)F)cn6)cn5)ccc4n3C)CC2)cc1.O=C(O)C(=O)O.O=C(O)C(=O)O [Example 21, 5-Trifluoromethylpyridine-2-carboxylic acid (6-{2-[4-(4-methoxy-benzyl)piperazine-1-carbonyl]-1-methyl-1H-indol-5-yloxy}pyridin-3-yl)methylamide dioxalate]"
14,226.1 to 227.3 °C,"Br.Cc1ccc(C(=O)N(C)c2ccc(Oc3ccc4cc(C(=O)N5CCN(Cc6ccc(OCC(F)(F)F)cc6)CC5)n(C)c4c3)nc2)cc1 [Example 23, 4,N-Dimethyl-N-[6-(1-methyl-2-{4-[4-(2,2,2-trifluoroethoxy)-benzyl]piperazine-1-carbonyl}-1H-indol-6-yloxy)pyridin-3-yl]-benzamide hydrobromide]"
15,189.8 to 192.8 °C,"Br.CCN(C(=O)c1ccc(C(F)(F)F)cc1)c1ccc(Oc2ccc3cc(C(=O)N4CCN(Cc5ccc(OCC(F)(F)F)cc5)CC4)n(C)c3c2)nc1 [Example 26, N-Ethyl-N-[6-(1-methyl-2-{4-[4-(2,2,2-trifluoroethoxy)benzyl]-piperazine-1-carbonyl}-1H-indol-6-yloxy)pyridin-3-yl]-4-tri-fluoromethylbenzamide hydrobromide]"
16,234.6 to 235.2 °C,"Br.CN(c1ccc(Oc2ccc3cc(C(=O)N4CCN(Cc5ccc(OCC(F)(F)F)cc5)CC4)n(C)c3c2)nc1)S(=O)(=O)c1ccccc1 [Example 30, N-Methyl-N-[6-(1-methyl-2-{4-[4-(2,2,2-trifluoroethoxy)benzyl]-piperazine-1-carbonyl}-1H-indol-6-yloxy)pyridin-3-yl]benzene-sulfonamide hydrobromide]"
17,135.9 to 136.8 °C,"CCCOc1ccc(CN2CCN(C(=O)c3cc4ccc(Oc5ccc(N(C)S(=O)(=O)c6ccc(C)cc6)cn5)cc4n3C)CC2)cc1 [Example 32, 4,N-Dimethyl-N-(6-{1-methyl-2-[4-(4-propoxybenzyl)piperazine-1-carbonyl]-1H-indol-6-yloxy}pyridin-3-yl)benzenesulfonamide]"
18,231.7 to 235 °C (dec.),"CCCOc1ccc(CN2CCN(C(=O)c3cc4ccc(Oc5ccc(N(C)S(=O)(=O)c6ccc(Cl)c(Cl)c6)cn5)cc4n3C)CC2)cc1 [Example 33, 3,4-Dichloro-N-methyl-N-(6-{1-methyl-2-[4-(4-propoxybenzyl)-piperazine-1-carbonyl]-1H-indol-6-yloxy}pyridin-3-yl)-benzenesulfonamide]"
19,200.1 to 200.2 °C,"CN(c1ccc(Oc2ccc3cc(C(=O)N4CCN(Cc5ccc(OCC(F)(F)F)cc5)CC4)[nH]c3c2)nc1)S(=O)(=O)c1ccc(C(F)(F)F)cc1 [Example 39, N-Methyl-N-[6-(2-{4-[4-(2,2,2-trifluoroethoxy)benzyl]piperazine-1-carbonyl}-1H-indol-6-yloxy)pyridin-3-yl]-4-trifluoromethyl-benzenesulfonamide]"
20,186.6 to 187.3 °C,"CC(C)Oc1ccc(CN2CCN(C(=O)c3cc4ccc(Oc5ncc(N(C)S(=O)(=O)c6ccc(C(F)(F)F)cc6)cn5)cc4n3C)CC2)cc1 [Example 42, N-(2-{2-[4-(4-Isopropoxybenzyl)piperazine-1-carbonyl]-1-methyl-1H-indol-6-yloxy}pyrimidin-5-yl)-N-methyl-4-trifluoromethyl-benzenesulfonamide]"
21,154.3 to 155.1 °C,"Cc1ccc(S(=O)(=O)N(C)c2cnc(Oc3ccc4cc(C(=O)N5CCN(Cc6ccc(OC(C)C)cc6)CC5)n(C)c4c3)nc2)cc1 [Example 44, N-(2-{2-[4-(4-Isopropoxybenzyl)piperazine-1-carbonyl]-1-methyl-1H-indol-6-yloxy}pyrimidin-5-yl)-4,N-dimethylbenzenesulfonamide]"
22,134.3 to 135.6 °C,"CC(C)Oc1ccc(CN2CCN(C(=O)c3cc4ccc(Oc5ncc(N(C)S(C)(=O)=O)cn5)cc4n3C)CC2)cc1 [Example 45, N-(2-{2-[4-(4-Isopropoxybenzyl)piperazine-1-carbonyl]-1-methyl-1H-indol-6-yloxy}pyrimidin-5-yl)-N-methylmethanesulfonamide]"
23,222.4 to 224.6 °C,"Br.Cc1cc(Oc2ccc3cc(C(=O)N4CCN(Cc5ccc(OCC(F)(F)F)cc5)CC4)n(C)c3c2)ncc1NC(=O)c1ccc(C(F)(F)F)cc1 [Example 46, N-[4-Methyl-6-(1-methyl-2-{4-[4-(2,2,2-trifluoroethoxy)benzyl]-piperazine-1-carbonyl}-1H-indol-6-yloxy)pyridin-3-yl]-4-tri-fluoromethylbenzamide hydrobromide]"
24,220 to 222.5 °C,"Br.Cc1cc(Oc2ccc3cc(C(=O)N4CCN(Cc5ccc(OCC(F)(F)F)cc5)CC4)n(C)c3c2)ncc1N(C)C(=O)c1ccc(C(F)(F)F)cc1 [Example 47, N-Methyl-N-[4-methyl-6-(1-methyl-2-{4-[4-(2,2,2-trifluoroethoxy)-benzyl]piperazine-1-carbonyl}-1H-indol-6-yloxy)pyridin-3-yl]-4-trifluoromethylbenzamide hydrobromide]"
25,152 to 153 °C,"O=C(CN1CCc2cc(Oc3ccc(NS(=O)(=O)c4ccc(Cl)c(Cl)c4)cn3)ccc21)N1CCN(Cc2ccc3c(c2)OCO3)CC1 [Example 64, N-(6-{1-[2-(4-Benzo[1,3]dioxol-5-ylmethylpiperazin-1-yl)-2-oxo-ethyl]-2,3-dihydro-1H-indol-5-yloxy}pyridin-3-yl)-3,4-dichloro-benzenesulfonamide]"
